In US12371691B2, “Nano complex for targeted repairing of neurovascular lesion, and preparation and use thereof” (SHANGHAI JIAOTONG UNIVERSITY SCHOOL OF MEDICINE, priority 2019, dated 2025):
“Also recorded” adds a separate entry of the source. No end group written: not given here.

How the values were obtained:
[1] = system: cerebral vessels of AD model mice; assay: Comparison of vascular binding capacity, two-photon imaging of brain after tail vein administration; assay type: in vivo, mouse; conditions: DiI-labeled nano complexes modified with the targeted peptide, 3 hours, FIG. 4
Method: The AD model animal mice were administered via tail veins with the above-mentioned red fluorescence-labeled nano complexes modified with targeted peptides (containing 8 bridge structure peptides), and were sacrificed 3 hours later. The mice were perfused with normal saline until the blood was not red, and the brain thereof was taken and photographed by a two-photon microscope. The nano complexes bound on cerebral vessels were imaged, and Image J image analysis software was used to analyze the fluorescence intensity of the red fluorescence-labeled nano complexes bound on the cerebral vessels.

[2] = system: Mouse-derived cerebrovascular endothelial cells bEnd3 cells; assay: High-content quantitative analysis of cellular uptake of red fluorescence-labeled nano complexes; assay type: cell-based; conditions: DiI-labeled nano complexes modified with the targeted peptide, 5 μg/mL by lipid mass, 6 h; FIG. 3
Method: High-content quantitative analysis was performed to determine cellular uptake of each of the above-mentioned nano complexes. Mouse-derived cerebrovascular endothelial cells bEnd3 cells were seeded in a 96-well plate at a density of 5000/well and cultured for 24 h. The original culture solution was aspirated and discarded, and 100 μL of the above-mentioned 8 red fluorescence-labeled nanostructure solutions (5 μg/mL, calculated by lipid mass) were added, respectively; the mixture was incubated in a cell incubator for 6 h, then fixed with 3.7% formaldehyde at 37° C. for 10 min, nuclear stained with Hoechest for 10 min, washed three times with PBS, and then photographed and subjected to quantitative analysis with a high-content Target Activation procedure. […]
Moreover, a red fluorescence-labeled targeted nano complex was prepared as described in the method of Example 2. Cellular uptake of a targeted peptide-modified nano complex was subjected to high-content quantitative analysis. The cerebrovascular endothelial cells were treated with targeted peptide-modified nano complexes containing targeted peptides of different ratios (1500:1, 1000:1, 500:1, 250:1, 100:1, 30:1, 10:1, and 5:1, the molar ratio of the lipid to the targeted peptide); the mixture was incubated in a cell incubator for 6 h, then fixed, nuclear stained, and subjected to high-content quantitative analysis.

| Substance | fluorescence intensity of nano complexes bound on cerebral vessels (bridge structure peptide screen) [1] | uptake of nano complex by cerebrovascular endothelial cells (bridge structure peptide screen) [2] |
| --- | --- | --- |
| AC-Phe-Ala-Glu-Lys-Phe-Lys-Glu-Ala-Val-Lys-Asp-Tyr-Phe-Ala-Lys-Phe-Trp-Asp-Ile-Ala-Ile-Glu-Leu-Lys-Val-Leu-Met-Glu-Lys-Glu-Leu (Ac-FAEKFKEAVKDYFAKFWDIAIELKVLMEKEL) [R5, targeted peptide with bridge Ile-Ala-Ile; tested as modifier of DiI-labeled nano complex] | dominant targeted peptides | good effect on uptake; also recorded: better uptake |
| AC-Phe-Ala-Glu-Lys-Phe-Lys-Glu-Ala-Val-Lys-Asp-Tyr-Phe-Ala-Lys-Phe-Trp-Asp-Gly-Ala-Gly-Ala-Glu-Leu-Lys-Val-Leu-Met-Glu-Lys-Glu-Leu (Ac-FAEKFKEAVKDYFAKFWDGAGAELKVLMEKEL) [R6, targeted peptide with bridge Gly-Ala-Gly-Ala; tested as modifier of DiI-labeled nano complex] | dominant targeted peptides | good effect on uptake; also recorded: better uptake |
| AC-Phe-Ala-Glu-Lys-Phe-Lys-Glu-Ala-Val-Lys-Asp-Tyr-Phe-Ala-Lys-Phe-Trp-Asp-Gly-Ser-Gly-Glu-Leu-Lys-Val-Leu-Met-Glu-Lys-Glu-Leu (Ac-FAEKFKEAVKDYFAKFWDGSGELKVLMEKEL) [R4, targeted peptide with bridge Gly-Ser-Gly; tested as modifier of DiI-labeled nano complex] | dominant targeted peptides; also recorded: optimal targeted peptide | good effect on uptake; also recorded: better uptake; also recorded: best uptake |
| AC-Phe-Ala-Glu-Lys-Phe-Lys-Glu-Ala-Val-Lys-Asp-Tyr-Phe-Ala-Lys-Phe-Trp-Asp-Gly-Ser-Ser-Ser-Gly-Gly-Glu-Leu-Lys-Val-Leu-Met-Glu-Lys-Glu-Leu (Ac-FAEKFKEAVKDYFAKFWDGSSSGGELKVLMEKEL) [R8, targeted peptide with bridge Gly-Ser-Ser-Ser-Gly-Gly; tested as modifier of DiI-labeled nano complex] |  | good effect on uptake |
| AC-Phe-Ala-Glu-Lys-Phe-Lys-Glu-Ala-Val-Lys-Asp-Tyr-Phe-Ala-Lys-Phe-Trp-Asp-Gly-Gly-Glu-Leu-Lys-Val-Leu-Met-Glu-Lys-Glu-Leu (Ac-FAEKFKEAVKDYFAKFWDGGELKVLMEKEL) [R1, targeted peptide with bridge Gly-Gly; tested as modifier of DiI-labeled nano complex] | dominant targeted peptides | good effect on uptake; also recorded: better uptake |
| AC-Phe-Ala-Glu-Lys-Phe-Lys-Glu-Ala-Val-Lys-Asp-Tyr-Phe-Ala-Lys-Phe-Trp-Asp-Ile-Ala-Glu-Leu-Lys-Val-Leu-Met-Glu-Lys-Glu-Leu (Ac-FAEKFKEAVKDYFAKFWDIAELKVLMEKEL) [R2, targeted peptide with bridge Ile-Ala; tested as modifier of DiI-labeled nano complex] |  | good effect on uptake |
| AC-Phe-Ala-Glu-Lys-Phe-Lys-Glu-Ala-Val-Lys-Asp-Tyr-Phe-Ala-Lys-Phe-Trp-Asp-Gly-Gly-Ser-Gly-Gly-Glu-Leu-Lys-Val-Leu-Met-Glu-Lys-Glu-Leu (Ac-FAEKFKEAVKDYFAKFWDGGSGGELKVLMEKEL) [R7, targeted peptide with bridge Gly-Gly-Ser-Gly-Gly; tested as modifier of DiI-labeled nano complex] |  | good effect on uptake |
| AC-Phe-Ala-Glu-Lys-Phe-Lys-Glu-Ala-Val-Lys-Asp-Tyr-Phe-Ala-Lys-Phe-Trp-Asp-Ile-Gly-Glu-Leu-Lys-Val-Leu-Met-Glu-Lys-Glu-Leu (Ac-FAEKFKEAVKDYFAKFWDIGELKVLMEKEL) [R3, targeted peptide with bridge Ile-Gly; tested as modifier of DiI-labeled nano complex] |  | good effect on uptake |
